Among the data in patent US8846929B2, “Substituted-quinoxaline-type piperidine compounds and the uses thereof” (priority 2007, dated 2014) are EC50 values, retold here.

This assay deals with human opioid receptor-like (ORL-1) (Homo sapiens (Human), UniProt P41146). Kind of assay: In vitro ORL-1 receptor [35S]GTPγS functional assay. The class given is biochemical. Background: Binding of GTPγS marks nucleotide exchange on a G protein.
human opioid receptor-like (ORL-1), sequence (P41146 whole entry): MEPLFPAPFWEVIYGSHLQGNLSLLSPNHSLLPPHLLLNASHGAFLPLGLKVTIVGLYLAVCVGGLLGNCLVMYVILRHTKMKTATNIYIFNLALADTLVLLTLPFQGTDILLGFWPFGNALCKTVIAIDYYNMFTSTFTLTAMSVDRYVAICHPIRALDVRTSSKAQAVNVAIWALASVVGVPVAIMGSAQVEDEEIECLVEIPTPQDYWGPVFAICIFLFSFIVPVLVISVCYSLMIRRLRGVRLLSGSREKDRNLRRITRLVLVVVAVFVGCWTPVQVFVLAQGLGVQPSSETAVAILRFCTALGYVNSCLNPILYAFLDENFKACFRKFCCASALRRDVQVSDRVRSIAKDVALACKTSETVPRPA
In the case of `CC(=O)N1CCC(Nc2nc3ccccc3n(C3CCN(C4CCCCCCC4)CC3)c2=O)CC1` [compound 49], it took 808 ± 110 nM to reach a half-maximal effect (EC50).

With `O=C(O)c1nc2ccccc2n([C@H]2C[C@H]3CCCC[C@@H](C2)N3C2/C=C\CCCCC2)c1=O` (stereo partly shown) [compound 359], it took 134 ± 2.7 nM to reach a half-maximal effect (EC50).

Consider `COC(=O)[C@@H]1CCCN1c1nc2ccccc2n(C2CCN(C3CCCCCCC3)CC2)c1=O` [compound 27], for which the 50% effective concentration (EC50) (as a rule, the midpoint of the concentration-response curve) came to 969 ± 89 nM.

For `O=c1c(N2Cc3ccccc3C2)nc2ccccc2n1C1CCN(C2CCCCCCC2)CC1` [compound 19, 1-(1-cyclooctylpiperidin-4-yl)-3-(isoindolin-2-yl)quinoxalin-2(1H)-one], the EC50 is 286 ± 30 nM.

Compound `C=CCNc1nc2ccccc2n(C2CCN(C3CCCCCCC3)CC2)c1=O` [compound 24, 3-(allylamino)-1-(1-cyclooctylpiperidin-4-yl)quinoxalin-2(1H)-one] had an EC50 of 611 ± 71 nM.

Compound `O=C1CN(c2nc3ccccc3n(C3CCN(C4CCCCCCC4)CC3)c2=O)CCN1` [compound 18, 1-(1-cyclooctylpiperidin-4-yl)-3-(3-oxopiperazin-1-yl)quinoxalin-2(1H)-one] showed an EC50 of 1280 ± 84 nM.

Take `CS(=O)(=O)N[C@@H]1CCN(c2nc3ccccc3n(C3CCN(C4CCCCCCC4)CC3)c2=O)C1` [compound 66]: it took 108 ± 15.1 nM to reach a half-maximal effect (EC50).

For `O=C1CCN(c2nc3ccccc3n(C3CCN(C4CCCCCCC4)CC3)c2=O)N1` [compound 119, 1-(1-cyclooctylpiperidin-4-yl)-3-(3-oxopyrazolidin-1-yl)quinoxalin-2(1H)-one], the concentration for a half-maximal effect (EC50) came to 3660 ± 171 nM.

As to `CC(C)(C)OC(=O)Nc1nc2ccccc2n(C2CCN(C3CCCCCCC3)CC2)c1=O` [compound 14, tert-butyl 4-(1-cyclooctylpiperidin-4-yl)-3-oxo-3,4-dihydroquinoxalin-2-ylcarbamate], the EC50 was determined as 4650 ± 238 nM.

For `COC(=O)c1ccc2c(c1)CN(c1nc3ccccc3n(C3CCN(C4CCCCCCC4)CC3)c1=O)CC2` [compound 44], the EC50 was 392 ± 6.6 nM.

Take `O=C(O)CN1CCN(c2nc3ccccc3n([C@H]3C[C@H]4CC[C@@H](C3)N4C3CCCCCCC3)c2=O)CC1` [compound 337, 2-(4-(4-((endo)-8-cyclooctyl-8-azabicyclo[3.2.1]octan-3-yl)-3-oxo-3,4-dihydroquinoxalin-2-yl)piperazin-1-yl)acetic acid]: the EC50 stood at 438 ± 15 nM.

The compound `CC(=O)Nc1nc2ccccc2n(C2CCN(C3CCCCCCC3)CC2)c1=O` [compound 17, N-(4-(1-cyclooctylpiperidin-4-yl)-3-oxo-3,4-dihydroquinoxalin-2-yl)acetamide] returned an EC50 of 7870 ± 2230 nM.

`CNC(=O)c1nc2ccccc2n(C2CCN(C3CCCCCCC3)CC2)c1=O` [compound 78] gave a concentration giving a half-maximal response (EC50) of 363 ± 20 nM.

`O=c1c(N2CC[C@H](O)C2)nc2ccccc2n1C1CCN(C2CCCCCCC2)CC1` [compound 68] had a concentration giving a half-maximal response (EC50) of 478 ± 6.4 nM.

As for `COC(=O)C(CO)Nc1nc2ccccc2n(C2CCN(C3CCCCCCC3)CC2)c1=O` (stereo not shown) [compound 46], the concentration giving a half-maximal response (EC50) was determined as 399 ± 56 nM.

`CC(C)(C)OC(=O)NCCNc1nc2ccccc2n(C2CCN(C3CCCCCCC3)CC2)c1=O` [compound 7, tert-butyl 2-(4-(1-cyclooctylpiperidin-4-yl)-3-oxo-3,4-dihydroquinoxalin-2-ylamino)ethylcarbamate] had a 50% effective concentration (EC50) of 979 ± 40 nM.

Turning to `CONC(=O)c1nc2ccccc2n(C2CCN(C3CCCCCCC3)CC2)c1=O` [compound 83], a half-maximal response (EC50) required 558 ± 77 nM.

With `COC(=O)C1CCN(c2nc3ccccc3n(C3CCN(C4CCCCCCC4)CC3)c2=O)CC1` [compound 16], the EC50 was determined as 3750 ± 93 nM.

The compound `NCC(O)CNc1nc2ccccc2n(C2CCN(C3CCCCCCC3)CC2)c1=O` (stereo not shown) [compound 58] gave an EC50 of 151 ± 7.9 nM.

The compound `O=C(O)C1CCCN1C(=O)c1nc2ccccc2n([C@H]2C[C@H]3CC[C@@H](C2)N3C2CCCCCCC2)c1=O` (stereo partly drawn) [compound 306, 1-(4-((endo)-8-cyclooctyl-8-azabicyclo[3.2.1]octan-3-yl)-3-oxo-3,4-dihydroquinoxaline-2-carbonyl)pyrrolidine-2-carboxylic acid] yielded a concentration for a half-maximal effect (EC50) of 548 ± 57 nM.

Regarding `O=C(O)c1ccc(CNC(=O)c2nc3ccccc3n([C@H]3C[C@H]4CC[C@@H](C3)N4C3CCCCCCC3)c2=O)nc1` [compound 318, 6-((4-((endo)-8-cyclooctyl-8-azabicyclo[3.2.1]octan-3-yl)-3-oxo-3 ,4-dihydroquinoxaline-2-carboxamido)methyl)nicotinic acid], it took 236 ± 13 nM to reach a half-maximal effect (EC50).

In the case of `NC(=O)CNc1nc2ccccc2n(C2CCN(C34CC5CC(CC(C5)C3)C4)CC2)c1=O` [compound 64], the EC50 worked out at 457 ± 90 nM.

For `O=c1c(NC[C@@H](O)CO)nc2ccccc2n1C1CCN(C2CCCCCCC2)CC1` [compound 54], the response was half-maximal at 464 ± 28 nM (EC50).

In turn, `CC(C)CCC(C)N1[C@@H]2CCC[C@H]1C[C@@H](n1c(=O)c(C(=O)O)nc3ccccc31)C2` (stereo partly shown) [compound 303] returned a half-maximal effective concentration (EC50) of 298 ± 23 nM.

With `O=C(c1nc2ccccc2n(C2CCN(C3CCCCCCC3)CC2)c1=O)N1CC2CNCC2C1` (stereo not shown) [compound 73, 1-(1-cyclooctylpiperidin-4-yl)-3-(octahydropyrrolo[3,4-c]pyrrole-2-carbonyl)quinoxalin-2(1H)-one], the EC50 was found to be 377 ± 115 nM.

As for `O=C(O)c1ccc(CNC(=O)c2nc3ccccc3n([C@H]3C[C@H]4CC[C@@H](C3)N4C3CCCCCCC3)c2=O)cc1` [compound 314], the response was half-maximal at 453 ± 66 nM (EC50).

In turn, `O=C(O)c1nc2ccccc2n([C@H]2C[C@H]3CCC[C@@H](C2)N3CCC2CCCCC2)c1=O` [compound 372] showed a concentration giving a half-maximal response (EC50) of 214 ± 57 nM.

As for `CC(C)(C)OC(=O)NC1CCN(c2nc3ccccc3n(C3CCN(C4CCCCCCC4)CC3)c2=O)CC1` [compound 21], it took 1470 ± 50 nM to reach a half-maximal effect (EC50).

As for `CN(C)c1nc2ccccc2n(C2CCN(C3CCCCCCC3)CC2)c1=O` [compound 2, 1-(1-cyclooctylpiperidin-4-yl)-3-(dimethylamino)quinoxalin-2(1H)-one], a half-maximal response (EC50) required 580 ± 92 nM.

`O=c1c(NC[C@@H](O)CO)nc2ccccc2n1C1CCN(C23CC4CC(CC(C4)C2)C3)CC1` [compound 89] yielded an EC50 of 806 ± 85 nM.

Take `CC(C)CC(C)N1[C@@H]2CCC[C@H]1C[C@@H](n1c(=O)c(C(=O)O)nc3ccccc31)C2` (stereo partly shown) [compound 304]: the EC50 was determined as 150 ± 6 nM.

In the case of `O=C(NCC(O)CO)c1nc2ccccc2n(C2CCN(C3CCCCCCC3)CC2)c1=O` (stereo not shown) [compound 79], a half-maximal effect (EC50) was put at 703 ± 39 nM.

In the case of `O=C(Nc1ccc(=O)[nH]c1)c1nc2ccccc2n(C2CCN(C3CCCCCCC3)CC2)c1=O` [compound 82], the EC50 came to 181 ± 9.8 nM.

`NC(=O)CCNc1nc2ccccc2n(C2CCN(C3CCCCCCC3)CC2)c1=O` [compound 47] came in with a half-maximal effective concentration (EC50) of 419 ± 12.7 nM.

`NC(=O)C1CCCN(c2nc3ccccc3n(C3CCN(C4CCCCCCC4)CC3)c2=O)C1` (stereo not shown) [compound 60] yielded a concentration for a half-maximal effect (EC50) of 2140 ± 661 nM.

Take `O=C(NOCc1ccccc1)c1nc2ccccc2n(C2CCN(C3CCCCCCC3)CC2)c1=O` [compound 84]: the concentration for a half-maximal effect (EC50) was 182 ± 22 nM.

`O=c1c(NCC(O)CO)nc2ccccc2n1C1CCN(C2CCCCCCC2)CC1` (stereo not shown) [compound 25, 1-(1-cyclooctylpiperidin-4-yl)-3-(2,3-dihydroxypropylamino)quinoxalin-2(1H)-one] returned a concentration for a half-maximal effect (EC50) of 781 ± 26 nM.

Compound `NC(=O)[C@@H]1CCCN1c1nc2ccccc2n(C2CCN(C3CCCCCCC3)CC2)c1=O` [compound 42] had an EC50 of 543 ± 27 nM.

Regarding `CC(=O)N[C@H]1CCN(c2nc3ccccc3n(C3CCN(C4CCCCCCC4)CC3)c2=O)C1` [compound 59], the EC50 turned out to be 383 ± 63 nM.

Consider `O=C(O)c1cccc(CNc2nc3ccccc3n([C@H]3C[C@H]4CC[C@@H](C3)N4C3CCCCCCC3)c2=O)c1` [compound 305], for which the 50% effective concentration (EC50) worked out at 394 ± 53 nM.

`CS(=O)(=O)NC1CCN(c2nc3ccccc3n(C3CCN(C4CCCCCCC4)CC3)c2=O)CC1` [compound 30] displayed a half-maximal effective concentration (EC50) of 699 ± 19 nM.

`CONC(=O)c1nc2ccccc2n([C@H]2C[C@H]3CC[C@@H](C2)N3C2CCCCCCC2)c1=O` [compound 121] returned an EC50 of 265 ± 27 nM.

`CC(C)(C)OC(=O)N1CCN(c2nc3ccccc3n(C3CCN(C4CCCCCCC4)CC3)c2=O)CC1` [compound 8, tert-butyl 4-(4-(1-cyclooctylpiperidin-4-yl)-3-oxo-3,4-dihydroquinoxalin-2-yl)piperazine-1-carboxylate] yielded a half-maximal effective concentration (EC50) of 4560 ± 1120 nM.

On to `N=C(N)NCCNc1nc2ccccc2n(C2CCN(C3CCCCCCC3)CC2)c1=O` [compound 26], for which the half-maximal effective concentration (EC50) stood at 109 ± 5.9 nM.

`CCOC(=O)CN(C)c1nc2ccccc2n(C2CCN(C3CCCCCCC3)CC2)c1=O` [compound 61] had an EC50 of 1230 ± 238 nM.

In turn, `CN(CC(O)CO)c1nc2ccccc2n(C2CCN(C3CCCCCCC3)CC2)c1=O` (stereo not shown) [compound 65] registered an EC50 of 348 ± 22 nM.

In turn, `NC(=O)[C@H](CO)Nc1nc2ccccc2n(C2CCN(C3CCCCCCC3)CC2)c1=O` [compound 33] returned a concentration giving a half-maximal response (EC50) of 211 ± 21 nM.

Regarding `COC(=O)[C@@H]1C[C@@H](O)CN1c1nc2ccccc2n(C2CCN(C3CCCCCCC3)CC2)c1=O` [compound 28], the EC50 came to 1880 ± 285 nM.

Turning to `O=C(O)c1nc2ccc(F)cc2n([C@H]2C[C@H]3CC[C@@H](C2)N3C2CCCCCCC2)c1=O` [compound 133], the EC50 turned out to be 473 ± 27 nM.

The compound `O=c1c(NC[C@H](O)CO)nc2ccccc2n1C1CCN(C2CCCCCCC2)CC1` [compound 55] came in with an EC50 of 421 ± 50 nM.

Compound `N#Cc1nc2ccccc2n(C2CCN(C3CCCCCCC3)CC2)c1=O` [compound 88] displayed an EC50 of 201 ± 27 nM.

Turning to `CN(CC(=O)O)C(=O)c1nc2ccccc2n([C@H]2C[C@H]3CC[C@@H](C2)N3C2CCCCCCC2)c1=O` [compound 307, 2-(4-((endo)-8-cyclooctyl-8-azabicyclo[3.2.1]octan-3-yl)-N-methyl-3-oxo-3,4-dihydroquinoxaline-2-carboxamido)acetic acid], the response was half-maximal at 400 ± 72 nM (EC50).

Take `CC(=O)N1CC2CN(c3nc4ccccc4n(C4CCN(C5CCCCCCC5)CC4)c3=O)CC2C1` (stereo not shown) [compound 13, 3-(5-acetylhexahydropyrrolo[3,4-c]pyrrol-2(1H)-yl)-1-(1-cyclooctylpiperidin-4-yl)quinoxalin-2(1H)-one]: the concentration for a half-maximal effect (EC50) stood at 1690 ± 166 nM.

`O=C(O)CN(CCNC(=O)c1nc2ccccc2n([C@H]2C[C@H]3CC[C@@H](C2)N3C23CC4CC(CC(C4)C2)C3)c1=O)CC(=O)O` [compound 325]: it took 109 ± 14 nM to reach a half-maximal effect (EC50).

`O=c1c(N2CC[C@@H](O)C2)nc2ccccc2n1C1CCN(C2CCCCCCC2)CC1` [compound 92] came in with an EC50 of 510 ± 100 nM.
